Results from article PMC4523242 (Antiviral Research, 2014).
Read-outs that look alike come from different tables or passages of the source.

Assays:
DENV2 NS5 RdRP = DENV2 NS5 RdRP (Dengue virus type 2, UniProt P14340); assay: RNA-dependent RNA polymerase assay; assay type: biochemical
DENV2 [1] = assay: qRT-PCR of intracellular and extracellular DENV2 RNA in infected BHK-21 cells; assay type: cell-based, Dengue virus type 2; conditions: 5 μM, MOI of 1, 72 h
Cytotoxicity = conditions: African green monkey, naïve Vero cells
DENV2 replicon = assay: DENV2 Rluc reporter replicon inhibition assay in BHK-21/DENV2 cells; assay type: cell-based, Dengue virus type 2; conditions: for % replicon inhibition (Means ± SEM) DENV2: 50 μM, 24 h, BHK-21/DENV2 replicon cells; for EC50: Dengue virus
[2] = target: Renilla luciferase (Rluc) (Renilla reniformis, UniProt P27652); assay type: biochemical
DENV2 NS2B-NS3 protease = target: T1, DENV2 NS2B-NS3 protease (Dengue virus type 2, UniProt P14340); assay type: biochemical
T1 sequence (P14340 1476-1653 limits assumed): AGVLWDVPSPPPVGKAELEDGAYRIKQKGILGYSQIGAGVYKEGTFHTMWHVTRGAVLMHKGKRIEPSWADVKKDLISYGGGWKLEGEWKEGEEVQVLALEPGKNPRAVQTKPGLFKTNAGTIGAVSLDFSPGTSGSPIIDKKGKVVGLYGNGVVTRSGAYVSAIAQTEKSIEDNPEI
T1 sequence (P14340 1398-1437 limits assumed): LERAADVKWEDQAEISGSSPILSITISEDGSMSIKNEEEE

DENV2 [3] = assay: Direct plaque assay; assay type: cell-based, Dengue virus type 2; conditions: MOI of 0.01
[4] = Viability of replicon expressing cells; conditions: hamster, BHK-21 cells expressing DENV2 replicon
WNV replicon = assay: WNV Rluc reporter replicon inhibition assay in Vero/WNV cells; assay type: cell-based, West Nile virus; conditions: 24 h; for EC50: read-out: WNV replicon EC50; for % replicon inhibition (Means ± SEM) WNV: 50 μM
[5] = target: DENV2 5'-RNA methyltransferase (NS5FL) (Dengue virus type 2, UniProt P14340); assay type: biochemical
DENV2 [6] = assay: DENV2 infectivity in BHK-21 cells, plaque assay of supernatants; assay type: cell-based, Dengue virus type 2
Vero cells = assay: Cytotoxicity; conditions: read-out: WNV replicon CC50; Vero cells, 24 h
BHK-21 cells = assay: Cytotoxicity; conditions: read-out: DENV2 replicon CC50, 24 h
[7] = DENV2, BHK-21, 24 h, read-out: DENV2 replicon EC50
[8] = Vero/WNV replicon cells, Rluc, initial screening

Sequence of Renilla luciferase (Rluc) (P27652 whole entry, looked up): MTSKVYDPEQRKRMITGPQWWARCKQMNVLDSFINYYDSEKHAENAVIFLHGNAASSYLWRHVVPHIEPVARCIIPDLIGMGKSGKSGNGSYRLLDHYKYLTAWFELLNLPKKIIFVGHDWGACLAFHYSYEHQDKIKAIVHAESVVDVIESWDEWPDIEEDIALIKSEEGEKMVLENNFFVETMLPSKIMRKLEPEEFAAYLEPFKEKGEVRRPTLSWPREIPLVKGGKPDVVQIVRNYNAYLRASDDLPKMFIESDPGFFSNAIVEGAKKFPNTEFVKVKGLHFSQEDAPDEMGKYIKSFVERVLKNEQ

Molecule | CC50 at 24 h (Cytotoxicity) [µM] | EC50 (DENV2 replicon; [7]) [µM] | EC50 (WNV replicon; West Nile virus, Vero) [µM] | CC50 (Vero cells) [µM] | % replicon inhibition (Means ± SEM) DENV2 (DENV2 replicon) [%] | CC50 (BHK-21 cells) [µM] | % replicon inhibition (Means ± SEM) WNV (WNV replicon; Vero/WNV replicon cells) [%] | EC50 (WNV replicon; [8]) [µM] | other results
CCN(CC)Cc1cc(Nc2ccnc3cc(Cl)ccc23)ccc1O [Compound 1, 4-[(7-chloroquinolin-4-yl)amino]-2(diethylaminomethyl)phenol] | 24.4 ± 2.49 | 10.8 ± 1.43 | 14.6 ± 2.21 | – | – | – | – | – | Inhibition of RdRP activity, positive-strand RNA synthesis (DENV2 NS5 RdRP; 50 μM, 60 min): 10.58 ± 0.94%; inhibition at 50 µM (DENV2 NS5 RdRP; read-out: Inhibition of RdRP activity, negative-strand synthesis): -17.1 ± 4.37%; intracellular and extracellular DENV2 RNA levels (qRT-PCR) (DENV2 [1]): effectively inhibited DENV2 replication; % replicon inhibition (Means ± SEM) DENV2 (DENV2 replicon; listed as AQ): 76.31 ± 1.60%; EC50 (DENV2 replicon; DENV2, BHK-21, 48 h, read-out: EC50 DENV2 replicon replication): 7.41 ± 1.09 µM; interference with Rluc enzyme activity [2]: did not interfere; effect on DENV2 protease (DENV2 NS2B-NS3 protease): no effect; effect on DENV2 adsorption (DENV2 [3]; 5 μM during adsorption only): does not inhibit DENV2 adsorption; virus titer reduction, direct plaque assay (DENV2 [3]; 10 μM during adsorption only): 69.23 ± 1.57%; virus titer reduction, direct plaque assay (DENV2 [3]; 25 μM during adsorption only): 82.70 ± 2.48%; CC50 at 48 h [4]: 52.1 ± 4.25 µM; inhibition at 50 µM (WNV replicon; West Nile virus, Vero, read-out: % replicon inhibition (Means ± SEM) WNV, 50 μM, 24 h, Vero/WNV replicon cells): 96.3 ± 0.39%; inhibition of formation of type I cap by NS5FL [5]: did not inhibit; plaque reduction, time of addition assay (DENV2 [6]; 5 μM added as late as 15 h post-infection, MOI of 1, supernatants at 72 h): ≥ 90%; effect when added late, time of addition assay (DENV2 [6]; 5 μM added at 21 h post-infection and later, MOI of 1): lost its inhibitory effect; reduction of plaque titer from DMSO control, order of addition assay (DENV2 [6]; 5 μM added post-infection, MOI of 1, 48 and 72 h post-infection): ≥ 90%; plaque formation reduced (time course) (DENV2 [6]; 5 μM, MOI of 0.01, up to 96 h): ≥ 90%; stability of AQ in infected cell culture (DENV2 [6]; concluded from time course of inhibition, 37 °C, post-infection): at least 96 h
Cl.ClCCN(CCCl)c1ccc(CCNc2ccnc3cc(Cl)ccc23)cc1 [Compound 4, Chloroquine ethyl phenyl mustard] | – | – | – | 5.02 ± 1.23 | > 99 | 74.1 ± 21.5 | > 99 | 1.55 ± 0.4 | –
CC(CCCN(CCCl)CCCl)Nc1ccnc2cc(Cl)ccc12 (stereo not drawn) [Compound 5, Chloroquine mustard] | 3.64 ± 0.93 | 2.9 ± 0.78 | 2.95 ± 0.77 | – | > 99 | – | > 99 | – | –
Quinacrine mustard [Compound 9] | – | – | – | 0.97 ± 0.11 | > 99 | 2.4 ± 0.63 | > 99 | 0.36 ± 0.09 | –
